The nature of data set [1]: Mouse hepatocyte stability. The data set is classed as in vitro ADME. Particulars: mouse hepatocytes, 37°C. The protocol:
(§1) Determination of human and mice hepatocyte stability was conducted as follows. 200 uL of the respective hepatocyte cell suspension (2×10e6/ml) was preincubated at 37° C. for 10 min. Then, 200 uL of a 2 uM working stock of the test compound was added to the hepatocyte cell suspension, and the mixture was further incubated at 37° C. and 500 rpm. The reaction was stopped at 30, 60 and 120 min by precipitating 50 uL of the incubation mixture with 200 uL of acetonitrile. Samples were vortexed for 5 min at 1200 rpm and centrifuged at 4000 rpm for 10 min. Intrinsic clearance and half-life were analysed using LC-MS/MS.
(§2) LC-MS/MS was performed for all assays using a C18 column (50*4.6 mm, 5 um) for the CaCo2 assay, or a C18 column (50*4.6 mm, 4 um) for the other assays. The mobile phases used were 10 mM Ammonium Acetate with 0.1% Formic acid (aqueous) and 100% Acetonitrile (organic).

Data set [2] in a line: Mouse liver microsomal stability. Format: in vitro ADME. Particulars: pH 7.4; mouse liver microsomes, NADPH, 37°C. The protocol:
(§3) Briefly, human and liver microsomal stability was determined by pre-incubation of 2.5 uL compound and 75 uL of the respective liver microsomes in potassium phosphate buffer (pH 7.4) at 37° C. After adding of NADPH as cofactor and further incubation at 37° C. for 60 min, acetonitrile containing internal standard was added, and the sample was vortexed for 5 min at 1200 rpm and then centrifuged 10 min at 4000 rpm.
as §2

Another data set deals with SIK2 (Homo sapiens, UniProt Q9H0K1). The data set is described as follows: radiometric protein kinase assay (33PanQinase Activity Assay), SIK2. The data set is classed as biochemical. Particulars: for IC50: ATP 1.0 μM, substrate RBER-CHKtide; for inhibiting SIK2 compared to PY1: in words. The protocol:
(§4) The IC50s of the compounds against the SIK family of protein-serine/threonine kinases (SIK2 and SIK3) were determined as followed. Briefly, a radiometric protein kinase assay (33PanQinase® Activity Assay) was used for measuring the kinase activity of the two protein kinases. The kinase assays were performed in 96-well FlashPlates™ from PerkinElmer (Boston, Mass., USA) in a 50 uL reaction volume. The reaction cocktail was pipetted in four steps in the following order: • […] (standard buffer/[gamma-33P]-ATP) • 10 uL of ATP solution (in water) • 5 uL of test compound (in 10% DMSO) • 20 uL enzyme/substrate mix
(§5) The following amounts of enzyme and applicable substrate were used per well:
(§6) The reaction cocktails were incubated at 30 °C for 60 minutes. The reaction was stopped with 50 uL of 2% (v/v) H3PO4, plates were aspirated and washed two times with 200 μL 0.9% (w/v) NaCl. Incorporation of 33Pi was determined with a microplate scintillation counter (Microbeta, Wallac). All assays were performed with a BeckmanCoulter/SAGIAN™ Core System.

A further data set has as its system Caco-2 cells monolayer. The data set is described as follows: CaCo2 permeability and efflux assay. The data set is classed as in vitro ADME. Particulars: CaCo2, apical to basal, 120 min. The protocol: (§7) To determine apparent permeability of the compounds an assay using a Caco-2 cells monolayer (cultured for 21d) in a 24-well format (poly carbonate high pore density plate with 0.4 μm pore size and a 0.7 cm2 active membrane area; Millipore) was performed as followed. 800 uL of DMEM was added to the basal compartment of the 24 well-plate and 60000 CaCo2 cells/well were seeded in the apical wells and incubated in a CO2 incubator at 37° C. for proliferation of cells. Apical to Basal permeability was determined by adding 400 uL of test compound to the apical well and 800 uL of HBSS buffer with 2% BSA to the basal well. 25 uL of basal sample was collected after 120 min and processed as stated below. Basal to Apical permeability was determined by adding 800 uL of test compound to basal well and 400 uL of HBSS buffer with 2% BSA to apical well. 25 uL of apical sample was collected after 120 min and processed as stated below. The samples were processed by diluting the donor samples 1:1 with HBSS containing 2% BSA and the receiver samples 1:1 with HBSS buffer. Samples were then precipitated with 200 uL of acetonitrile containing internal standard, vortexed for 5 min at 1000 rpm, and centrifuged at 4000 rpm for 20 min. 150 uL of supernatant was diluted with 150 uL of water and submitted for LC-MS/MS analysis, and Bi-directional (A-B and B-A) apparent permeability (Papp) was calculated.
as §2

The nature of data set [3]: CaCo2 permeability and efflux assay. Particulars: human, Caco-2; CaCo2, mean efflux ratio. Format: in vitro ADME. The protocol:
as §7, §2

The next data set deals with SIK3 (Homo sapiens, UniProt Q9Y2K2). The data set is described as follows: radiometric protein kinase assay (33PanQinase Activity Assay), SIK3. The data set is classed as biochemical. Particulars: for IC50: ATP 1.0 μM, substrate RBER-CHKtide; for inhibiting SIK3 compared to PY1: in words. The protocol: as §4, §5, §6
Chain of SIK3 (Q9Y2K2 whole entry): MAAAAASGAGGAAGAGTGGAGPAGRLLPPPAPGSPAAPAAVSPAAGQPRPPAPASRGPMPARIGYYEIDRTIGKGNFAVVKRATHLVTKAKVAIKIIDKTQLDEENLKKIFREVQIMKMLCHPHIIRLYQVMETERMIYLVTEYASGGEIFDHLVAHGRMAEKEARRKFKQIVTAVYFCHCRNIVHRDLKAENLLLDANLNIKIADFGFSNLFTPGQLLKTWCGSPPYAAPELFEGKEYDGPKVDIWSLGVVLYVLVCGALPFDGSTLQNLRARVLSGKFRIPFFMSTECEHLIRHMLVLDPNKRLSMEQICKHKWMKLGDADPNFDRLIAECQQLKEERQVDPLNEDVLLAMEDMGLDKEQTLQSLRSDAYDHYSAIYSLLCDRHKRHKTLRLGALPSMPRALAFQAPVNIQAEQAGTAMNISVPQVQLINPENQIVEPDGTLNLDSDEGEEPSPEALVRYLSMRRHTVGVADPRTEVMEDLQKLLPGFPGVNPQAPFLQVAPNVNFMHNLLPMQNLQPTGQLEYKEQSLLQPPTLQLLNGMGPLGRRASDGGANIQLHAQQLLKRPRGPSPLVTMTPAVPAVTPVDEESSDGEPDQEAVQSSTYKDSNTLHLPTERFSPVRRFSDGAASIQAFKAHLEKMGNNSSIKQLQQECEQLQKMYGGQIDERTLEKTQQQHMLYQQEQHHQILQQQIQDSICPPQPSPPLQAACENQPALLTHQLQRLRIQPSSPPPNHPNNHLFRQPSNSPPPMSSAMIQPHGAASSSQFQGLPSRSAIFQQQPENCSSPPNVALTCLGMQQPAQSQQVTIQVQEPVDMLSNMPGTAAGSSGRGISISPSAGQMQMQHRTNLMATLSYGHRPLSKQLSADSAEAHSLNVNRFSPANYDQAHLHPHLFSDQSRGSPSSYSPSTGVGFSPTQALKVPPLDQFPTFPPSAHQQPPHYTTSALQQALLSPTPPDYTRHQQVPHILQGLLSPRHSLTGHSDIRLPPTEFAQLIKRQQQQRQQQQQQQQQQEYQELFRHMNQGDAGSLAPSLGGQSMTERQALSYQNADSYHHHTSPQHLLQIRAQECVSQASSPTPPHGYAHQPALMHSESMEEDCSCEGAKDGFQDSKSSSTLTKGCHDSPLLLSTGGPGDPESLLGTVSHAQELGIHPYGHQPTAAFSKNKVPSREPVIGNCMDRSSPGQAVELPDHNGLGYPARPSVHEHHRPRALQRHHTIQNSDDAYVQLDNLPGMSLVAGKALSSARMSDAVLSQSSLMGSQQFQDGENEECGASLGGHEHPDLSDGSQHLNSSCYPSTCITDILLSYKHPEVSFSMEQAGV
The nature of data set [4]: Murine plasma protein binding (RED method). Format: in vitro ADME. Particulars: mouse. The protocol:
(§8) Human and mice protein plasma binding was determined using the Plasma Protein Binding by RED Method. Briefly, 200 uL of the respective plasma containing the test compound (10 uM) was spiked into the donor well (RED Chamber) of the insert. 350 uL of PBS was spiked into receiver well (white chamber). The plate was incubated at 37° C. in a thermomixer at 400 rpm for 5 hours. The samples were matrix equilibrated with opposite matrix (25 uL blank buffet/Plasma). Matrix matched samples were precipitated with 200 uL of Acetonitrile containing Internal standard. Samples were vortexed at 1000 rpm for 5 min and centrifuged at 4000 rpm for 10 min. The supernatant was diluted 2 folds with water and % bound and unbound protein and % recovery at 5 h was determined by LC-MS/MS.
as §2

The next data set has as its system MC38 tumour cells. The data set can be described thus: TNF-sensitised cell viability assay (CellTiter-Glo), MC38. The data set is classed as cell-based, murine. Particulars: Mus musculus, MC-38, read-out: MC38 IC50 (at 100 ng/ml rMuTNF); 100 ng/ml rMuTNF, 72 h. The protocol:
(§9) Cell viability of HCT116 tumour cells was measured using the CellTiter-Glo (CTG) luminescent cell viability assay (Promega, Madison, USA) according to the manufacturer's protocol. In short, 1×10^3 HCT116 cells were seeded in a 384-well plate for 24 h and subsequently treated with different concentrations of compounds and 10 ng/ml rHuTNF for 72 h at 37° C. and 5% CO2. After incubation, CTG reagent was added to the wells and cells were lysed for 10 min. Read-out was performed using the Tecan reader with 0.1 sec counting time. TNF-induced cell killing in human PANC1 and murine MC38 tumour cells was measured analogously to the assay in human HCT116 cells, except that for the PANC1 assay 100 ng/ml rHuTNF and for the MC38 assay 100 ng/ml rMuTNF were used.

A further data set is described as follows: Kinetic solubility assay. Format: physicochemical. Particulars: aqueous buffer, kinetic from dmso stock; PBS buffer pH 7.4, 1.0% DMSO, 24 h at RT. The protocol:
The Kinetic solubility assay was conducted as follows. 4 uL compound of the 50 mM DMSO stock was added to deep well plate containing 396 uL PBS buffer (pH 7.4). The DMSO content in the sample was 1.0%, and the compound concentration 500 μM. The sample plate was vortexed at 800 rpm for 24 h at RT on a thermomixer. At the end of the incubation period, the sample plate was centrifuged at 4000 rpm for 10 mins. 3 uL of supernatant was transferred to well containing 297 uL of ISTD in Acetonitrile water:50:50, v/v and analysed in LC-MS/MS against a calibration curve (CC).

Data set [5] is described as follows: Human hepatocyte stability. The data set is classed as in vitro ADME. Particulars: human hepatocytes, 37°C. The protocol: as §1, §2
The nature of data set [6]: Human liver microsomal stability. Format: in vitro ADME. Particulars: pH 7.4; human liver microsomes, NADPH, 37°C. The protocol:
as §3, §2

Data set [7] can be described thus: Human plasma-protein binding (RED method). Format: in vitro ADME. The protocol:
as §8, §2

The test system of a further data set is HCT116 and PANC1. The data set is described as follows: toxicity against the cell lines in the absence of TNF. The data set is classed as cell-based. Particulars: 0 ng/mL TNF, up to concentrations of 10 uM. The protocol: Typically, those compounds of Formula (I) tested were less toxic against the cell lines than the prior art compound PY1 when tested (eg, in the absence of TNF), especially against the human cell lines such as HCT116 (data not shown).
as §9

Data set [8] concerns the target 335 wild-type protein kinases. The data set is described as follows: single-point inhibition assays, residual activity (ProQinase Kinase Profiler). The data set is classed as biochemical. Particulars: single-point 0.1 uM and 1 uM, 335 kinases. The protocol:
Several compounds of Formula (I) described herein were also tested in single-point (0.1 uM and 1 uM) inhibition assays over a diverse set of 335 wild-type protein (ProQinase “Kinase Profiler”; ProQinase, Freiburg, Germany), in which the residual activity of each kinase was determined. […] Secondly, the residual activity of each kinase was compared to other compounds tested (in particular, against the prior art compounds PY1) by use of scatter plots.

Results on three molecules are retold here after patent US20230192701A1, “BICYCLIC KINASE INHIBITORS AND USES THEREOF” (iOmx Therapeutics AG, priority 2020, published 2023).

≈ marks a conversion by molar mass, not a printed value. Entries after “also recorded” stand apart in the source; their conditions may differ.

Chain of SIK2 (Q9H0K1 whole entry): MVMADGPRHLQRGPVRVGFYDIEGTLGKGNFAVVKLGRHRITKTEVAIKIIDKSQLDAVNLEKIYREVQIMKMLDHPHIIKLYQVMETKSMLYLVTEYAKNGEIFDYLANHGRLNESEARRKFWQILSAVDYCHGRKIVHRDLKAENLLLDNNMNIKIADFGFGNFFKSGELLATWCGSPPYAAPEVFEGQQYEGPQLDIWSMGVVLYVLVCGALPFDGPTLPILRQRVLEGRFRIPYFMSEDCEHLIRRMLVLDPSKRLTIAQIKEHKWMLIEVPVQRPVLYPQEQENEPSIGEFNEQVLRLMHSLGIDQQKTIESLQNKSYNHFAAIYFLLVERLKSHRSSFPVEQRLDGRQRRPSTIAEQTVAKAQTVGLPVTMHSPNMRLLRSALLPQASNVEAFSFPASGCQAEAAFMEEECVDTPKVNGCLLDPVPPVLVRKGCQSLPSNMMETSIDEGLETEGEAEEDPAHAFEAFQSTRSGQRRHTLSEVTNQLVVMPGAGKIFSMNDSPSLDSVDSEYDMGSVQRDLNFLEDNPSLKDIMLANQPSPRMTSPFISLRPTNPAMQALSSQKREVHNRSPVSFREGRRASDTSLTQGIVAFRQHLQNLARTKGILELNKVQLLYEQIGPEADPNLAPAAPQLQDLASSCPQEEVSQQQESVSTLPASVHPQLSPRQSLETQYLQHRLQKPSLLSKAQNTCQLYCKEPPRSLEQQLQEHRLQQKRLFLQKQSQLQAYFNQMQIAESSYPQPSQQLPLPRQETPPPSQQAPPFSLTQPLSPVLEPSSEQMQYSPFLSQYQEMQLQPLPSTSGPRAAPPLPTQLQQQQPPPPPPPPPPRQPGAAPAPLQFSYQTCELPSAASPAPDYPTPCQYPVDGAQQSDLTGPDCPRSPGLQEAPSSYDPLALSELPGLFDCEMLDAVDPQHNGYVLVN

Regarding `COc1ccc(N2C(=O)N(c3c(C(F)F)csc3Cl)Cc3cnc(Nc4ccc(C5CCN(C)CC5)cc4)nc32)nc1` [AA2, 3-(2-chloro-4-(difluoromethyl)thiophen-3-yl)-l-(5-methoxypyridin-2-yl)-7-((4-(l-methylpiperidin-4-yl)phenyl)amino)-3,4-dihydropyrimido[4,5-d]pyrimidin-2(1H)-one], the half-life at 1 uM worked out at 82 min in data set [1] and 186 min in [5]. The half-life turned out to be 10 min in [2] and 12 min in [6]. Further, the IC50 is under 50 nM against SIK2, under 50 nM at SIK3 and 500 to 1000 nM in the data set on MC38 tumour cells. Further, at SIK2, the “inhibiting SIK2 compared to PY1” value was “superior in inhibiting SIK2 and SIK3 compared to PY1”. Besides, the “A > B(10 EE-06 cm/s)” value in the data set with Caco-2 cells monolayer is recorded as 12.9 10 EE-06 cm/s. Further, the efflux ratio at 120 min in [3] was 2.7. In addition, the “inhibiting SIK3 compared to PY1” value against SIK3 was “superior in inhibiting SIK2 and SIK3 compared to PY1”. Further, the recovery at 5 h, 10 uM in [4] was 38%; in data set [7], 32%. In “Kinetic solubility assay”, this molecule registered a solubility (kinetic) at 24 h of 9.1 µM (≈ 5.57 µg/mL).
With `COc1ccc(N2C(=O)N(c3c(C)noc3C)Cc3cnc(Nc4ccc(C5CCN(C)CC5)cc4OC)nc32)nc1` [AA5, 3-(3,5-dimethylisoxazol-4-yl)-7-((2-methoxy-4-(1-methylpiperidin-4-yl)phenyl)amino)-1-(5-methoxypyridin-2-yl)-3,4-dihydropyrimido[4,5-d]pyrimidin-2(1H)-one], the “toxicity against the cell lines in the absence of TNF” value with HCT116 and PANC1 is listed as “essentially non-toxic”. At SIK2, this molecule displayed an IC50 of 400 to 800 nM. The IC50 at SIK3 lay within 800 to 1000 nM. For the same molecule, in data set [8], the “kinases inhibited less strongly than by PY1” value was “FYN, BTK, EPHB2, LCK and CSK”; the “overall kinase profile compared to prior art compound PY1” value is recorded as “potently inhibited far fewer kinases than prior art compound PY1”; the “relevant kinases still potently inhibited” value is “TXK, ERBB4, EPHB1, FRK, BRK, EPHA4, ACK1, EGFR, EPHA1 and SIK1; also recorded: reasonably potent against CSF1R”.
As for `COc1ccc(N2C(=O)N(c3c(CF)csc3Cl)Cc3cnc(Nc4ccc(C5CCN(C)CC5)cc4)nc32)nc1` [AA3, 3-(2-chloro-4-(fluoromethyl)thiophen-3-yl)-l-(5-methoxypyridin-2-yl)-7-((4-(l-methylpiperidin-4-yl)phenyl)amino)-3,4-dihydropyrimido[4,5-d]pyrimidin-2(1H)-one], the half-life at 1 uM in [1] came out at 108 min; in data set [5], 42 min. The half-life was 20 min in [2] and 16 min in [6]. The figures for the IC50 at SIK2, at SIK3 and with MC38 tumour cells were under 50 nM, under 50 nM and 500 to 1000 nM, respectively. For the same molecule, the “inhibiting SIK2 compared to PY1” value against SIK2 is “superior in inhibiting SIK2 and SIK3 compared to PY1”. Also, in the data set with Caco-2 cells monolayer, the “A > B(10 EE-06 cm/s)” value is 8.4 10 EE-06 cm/s. For the same molecule, in [3], the efflux ratio at 120 min came out at 2.9. In addition, at SIK3, the “inhibiting SIK3 compared to PY1” value is “superior in inhibiting SIK2 and SIK3 compared to PY1”. Also, the recovery at 5 h, 10 uM in data set [4] was 45%; in [7] it was 34%. The solubility (kinetic) at 24 h in the data set “Kinetic solubility assay” was found to be 9.1 µM (≈ 5.41 µg/mL). The “kinases inhibited less strongly than by PY1” value in [8] is “SRMS, NLK, RIPK5, LTK and ALK”. For the same molecule, in [8], the “kinases inhibited more strongly than by PY1” value was “TAOK2, SYK, TYRO3, ACVR2B, MEKK2, AXL, ITK, MAP3K11, TRKA, MERTK, ZAP70, and MEKK2, and in particular CSF1R, HCK, TXK, YES, LCK, SRC, EPHA1 and FGR”. Moreover, the “overall kinase profile compared to prior art compound PY1” value in data set [8] is given as “potent inhibitor of surprisingly more kinases than prior art compound PY1”.
